According to publication PMC12689914, “Identification of a novel dual-targeting peptide inhibitor of SARS-CoV-2 RBD and NRP1 through structure-based virtual screening” (Frontiers in Pharmacology, 2025):
Non-standard residues stand in square brackets, D forms with d. Residues, ends and D or L forms follow the SMILES beside them. No end group written: not given here. *: point of attachment. Biotin = O=C1N[C@H]2[C@H](CS[C@H]2CCCCC(=O)*)N1; βAla = NCCC(=O)O

Assays:
NRP1 = biological target: T1, NRP1 (Homo sapiens, UniProt O14786); assay: MST binding affinity to NRP1
T1 construct: purchased Abcam
T1 sequence (O14786 22-923): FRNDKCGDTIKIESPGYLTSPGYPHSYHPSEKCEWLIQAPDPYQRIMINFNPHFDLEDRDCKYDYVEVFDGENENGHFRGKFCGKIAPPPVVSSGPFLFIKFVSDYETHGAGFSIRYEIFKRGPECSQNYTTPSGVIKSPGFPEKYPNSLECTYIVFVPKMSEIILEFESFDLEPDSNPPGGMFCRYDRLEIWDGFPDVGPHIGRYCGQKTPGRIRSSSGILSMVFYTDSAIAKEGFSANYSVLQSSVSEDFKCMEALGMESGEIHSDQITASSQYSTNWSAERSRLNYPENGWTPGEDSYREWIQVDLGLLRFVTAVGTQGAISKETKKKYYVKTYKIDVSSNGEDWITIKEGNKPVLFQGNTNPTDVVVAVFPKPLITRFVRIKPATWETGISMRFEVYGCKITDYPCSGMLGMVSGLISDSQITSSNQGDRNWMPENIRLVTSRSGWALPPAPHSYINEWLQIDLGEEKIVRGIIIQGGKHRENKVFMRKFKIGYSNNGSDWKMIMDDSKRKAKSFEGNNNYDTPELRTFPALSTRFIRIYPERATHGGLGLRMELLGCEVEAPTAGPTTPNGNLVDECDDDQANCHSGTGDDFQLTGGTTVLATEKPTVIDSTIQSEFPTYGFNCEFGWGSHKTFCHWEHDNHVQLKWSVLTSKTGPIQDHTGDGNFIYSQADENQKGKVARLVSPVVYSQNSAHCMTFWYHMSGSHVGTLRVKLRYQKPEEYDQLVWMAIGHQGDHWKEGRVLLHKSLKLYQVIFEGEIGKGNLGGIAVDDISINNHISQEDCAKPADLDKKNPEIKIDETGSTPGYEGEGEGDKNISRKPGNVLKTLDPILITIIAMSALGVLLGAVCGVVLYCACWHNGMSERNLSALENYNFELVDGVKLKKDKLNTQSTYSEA
Protocol: (§1) MST assay was used to analyze the binding ability of peptides 1–5 to RBD and NRP1. Specifically, RBD and NRP1 proteins were labeled using a lysine (Lys) labeling kit, respectively, and their final concentrations were adjusted to 50 nM. The peptides were serially diluted in a 1:1 gradient starting from an initial concentration of 12.5 μM. Subsequently, the labeled proteins were mixed with the diluted peptides in 100 mM potassium phosphate buffer (pH 7.0). After incubation at room temperature for 5 min, the mixture was loaded into standard MST glass capillaries. Detection was performed using a Monolith NT.115 instrument with the MST power set to 50% and the LED power set to 20%. The experiment was independently repeated three times.

SARS-CoV-2 RBD = assay: MST binding affinity to RBD; conditions: for Kd: MST, 50 nM labeled protein, 100 mM potassium phosphate buffer pH 7.0
Protocol: as §1

[1] = system: SARS-CoV-2 Omicron XBB.1.5 pseudovirus; conditions: 3.2 µM
[2] = system: live SARS-CoV-2 Omicron XBB.1.5 strain; design: species or system K18-hACE2 mice; conditions: mouse, in vivo
hERG channel = biological target: T2, hERG channel (Homo sapiens, UniProt Q12809); assay: Predictor hERG fluorescence polarization assay; format: binding; conditions: for IC50 at 4 h: human, Predictor hERG Membrane (Invitrogen kit)
T2 construct: purchased Invitrogen
T2 sequence (Q12809 whole entry): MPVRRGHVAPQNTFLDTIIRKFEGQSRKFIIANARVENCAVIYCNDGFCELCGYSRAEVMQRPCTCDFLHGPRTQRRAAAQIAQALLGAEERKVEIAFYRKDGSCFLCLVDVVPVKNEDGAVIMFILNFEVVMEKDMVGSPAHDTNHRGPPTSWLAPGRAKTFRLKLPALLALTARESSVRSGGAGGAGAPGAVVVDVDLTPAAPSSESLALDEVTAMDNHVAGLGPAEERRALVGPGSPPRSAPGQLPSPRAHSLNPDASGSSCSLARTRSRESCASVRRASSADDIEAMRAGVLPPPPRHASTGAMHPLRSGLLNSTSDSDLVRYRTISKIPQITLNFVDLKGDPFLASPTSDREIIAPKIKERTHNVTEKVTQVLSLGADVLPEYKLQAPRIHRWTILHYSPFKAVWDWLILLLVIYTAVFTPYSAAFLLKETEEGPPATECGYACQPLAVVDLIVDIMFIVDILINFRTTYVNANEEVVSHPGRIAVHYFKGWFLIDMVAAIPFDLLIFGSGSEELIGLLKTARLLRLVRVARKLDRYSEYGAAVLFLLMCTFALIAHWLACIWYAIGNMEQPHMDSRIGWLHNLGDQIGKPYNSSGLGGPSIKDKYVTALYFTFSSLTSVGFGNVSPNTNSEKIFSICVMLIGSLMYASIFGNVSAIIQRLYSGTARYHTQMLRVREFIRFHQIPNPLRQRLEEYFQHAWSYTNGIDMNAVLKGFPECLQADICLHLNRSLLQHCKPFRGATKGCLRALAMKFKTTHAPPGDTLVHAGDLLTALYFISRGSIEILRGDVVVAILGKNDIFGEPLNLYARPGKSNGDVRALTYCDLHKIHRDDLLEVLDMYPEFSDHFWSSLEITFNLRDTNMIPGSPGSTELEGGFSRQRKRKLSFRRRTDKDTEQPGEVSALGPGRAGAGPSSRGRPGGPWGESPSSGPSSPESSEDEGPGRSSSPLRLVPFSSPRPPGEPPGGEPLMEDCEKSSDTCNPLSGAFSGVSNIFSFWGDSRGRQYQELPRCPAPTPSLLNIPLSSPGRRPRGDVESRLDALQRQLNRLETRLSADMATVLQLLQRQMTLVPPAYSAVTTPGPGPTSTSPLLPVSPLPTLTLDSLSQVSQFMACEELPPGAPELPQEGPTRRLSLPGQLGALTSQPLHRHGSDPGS
Protocol: This study was conducted using the Predictor hERG Fluorescence Polarization Assay Kit purchased from Invitrogen. The kit comprises Predictor hERG Tracer Red, Predictor hERG Membrane, Predictor hERG FP Assay Buffer, and E-4031 as the positive control. The Predictor hERG Tracer Red was diluted to prepare a 4 nM tracer working solution, while the stock solution of E-4031 was diluted to a 120 μM E-4031 working solution. Subsequently, serial dilutions of E-4031 were prepared to serve as the reference compound. Test peptides were subjected to gradient dilution to generate solutions with 6 concentration gradients. For the assay procedure, buffer or compound solution was first added to the assay plate, followed by the addition of membrane and the tracer. After incubating the assay plate at 25 °C for 4 h, fluorescence polarization (FP) values (mp values) were measured using an EnVision microplate reader (PerkinElmer) equipped with a set of polarized filters. The half-maximal inhibitory concentration (IC50) of active compounds was determined using GraphPad Prism software.

A549 cells = assay: MTT cytotoxicity assay; format: cell-based, human; conditions: 100 μM, 48 h
Protocol: A549 cells ([…], catalog number: PCS-300-010) were purchased from the American Type Culture Collection (ATCC, Manassas, VA, United States). The cells were cultured in Airway Epithelial Cell Basal Medium (ATCC, catalog number: PCS-300-030) supplemented with Bronchial/Tracheal Epithelial Cell Growth Kit (ATCC, catalog number: PCS-300-040) and incubated in a 37 °C incubator with 5% CO2. Then, cells were seeded into 96-well plates at a density of 5 × 10^4 cells per well and incubated overnight at 37 °C with 5% CO2. Subsequently, cells were treated with 100 μM peptides 1–5 for 48 h. After treatment, MTT stock solution (0.5 mg/mL) was added to each well, followed by additional 4-h incubation. Finally, the absorbance signal was measured at 570 nm using a microplate reader.

[3] = mice, 1 and 5 mg/kg intranasal

N=C(N)NCCC[C@@H](N)C(=O)N1CCC[C@@H]1C(=O)N1CCC[C@@H]1C(=O)N[C@H](CCCNC(=N)N)C(=O)N[C@H](CCC(=O)O)C(=O)NCC(=O)N[C@H](CCCNC(=N)N)C(=O)O [NTP, rppregr] (H-[dR][dP][dP][dR][dE]G[dR]-OH)
Kd (NRP1): 141 nM

CSCC[C@H](NC(=O)[C@@H](NC(=O)[C@@H](N)CC(C)C)C(C)C)C(=O)NCC(=O)N[C@@H](CC(C)C)C(=O)N[C@@H](CC(N)=O)C(=O)N[C@H](C(=O)N[C@@H](Cc1c[nH]c2ccccc12)C(=O)N[C@@H](CC(C)C)C(=O)N[C@@H](CCCNC(=N)N)C(=O)N[C@@H](Cc1ccc(O)cc1)C(=O)N[C@@H](CO)C(=O)N[C@@H](CCCCN)C(=O)NCCC(=O)N[C@@H](CCCCNC(=O)CCCC[C@@H]1SC[C@@H]2NC(=O)N[C@@H]21)C(N)=O)C(C)C [PP-4] (H-LVMGLNVWLRYSK[βAla]K(Biotin)-NH2; N-terminus assumed)
Kd (SARS-CoV-2 RBD): 79 nM
NRP1 (Kd) (NRP1; MST, 50 nM labeled protein, 100 mM potassium phosphate buffer pH 7.0): no binding affinity

CC(C)C[C@H](NC(=O)[C@H](CCC(=O)O)NC(=O)[C@H](C)NC(=O)[C@@H](N)CCC(=O)O)C(=O)N[C@H](CC(=O)O)C(=O)N[C@H](C(=O)N[C@@H](CO)C(=O)N[C@@H](CC(=O)O)C(=O)N[C@@H](C)C(=O)N[C@@H](Cc1ccccc1)C(=O)N[C@@H](Cc1ccc(O)cc1)C(=O)N[C@@H](CCCNC(=N)N)C(=O)N[C@@H](Cc1ccccc1)C(=O)N[C@@H](Cc1ccccc1)C(=O)N[C@@H](CCCNC(=N)N)C(=O)N[C@@H](CCCNC(=N)N)C(=O)N[C@@H](C)C(=O)N[C@@H](CCCNC(=N)N)C(=O)O)C(C)C [Peptide-1] (H-EAEL[dD]VSDAFYRFFRRAR-OH; N-terminus and C-terminus assumed)
Kd (SARS-CoV-2 RBD): 19 nM
fold higher affinity for RBD compared with the single-target peptide (SARS-CoV-2 RBD; versus PP-4): approximately 4.2 fold
inhibition rate against SARS-CoV-2 Omicron XBB.1.5 infection [1]: approximately 80%
fold higher affinity for NRP1 compared with the single-target peptide (NRP1; versus NTP): ~4.4 fold
viral load in the lungs of mice vs control [2]: significantly reduced
IC50 at 4 h (hERG channel): > 50000 nM
cytotoxicity to A549 cells (A549 cells): no obvious toxicity
alanine aminotransferase (ALT) level [3]: did not change significantly
aspartate aminotransferase (AST) level [3]: did not change significantly
blood urea nitrogen (BUN) level [3]: did not change significantly
creatinine (CRE) level [3]: did not change significantly

CC(C)C[C@H](NC(=O)[C@H](C)NC(=O)[C@@H](NC(=O)[C@@H](N)CO)[C@@H](C)O)C(=O)N[C@H](CC(=O)O)C(=O)N[C@H](C(=O)N[C@@H](CO)C(=O)N[C@@H](CC(=O)O)C(=O)N[C@@H](C)C(=O)N[C@@H](Cc1ccccc1)C(=O)N[C@@H](Cc1ccc(O)cc1)C(=O)N[C@@H](CCCNC(=N)N)C(=O)N[C@@H](Cc1ccccc1)C(=O)N[C@@H](Cc1ccccc1)C(=O)N[C@@H](CCCNC(=N)N)C(=O)N[C@@H](CCCCN)C(=O)N[C@@H](C)C(=O)N[C@@H](CCCNC(=N)N)C(=O)O)C(C)C [Peptide-2] (H-STAL[dD]VSDAFYRFFRKAR-OH; N-terminus and C-terminus assumed)
Kd (SARS-CoV-2 RBD): 56 nM
IC50 at 4 h (hERG channel): > 50000 nM

CC[C@H](C)[C@H](NC(=O)[C@@H](N)CC(N)=O)C(=O)N[C@@H](CCC(=O)O)C(=O)N[C@@H](CC(C)C)C(=O)N[C@H](CC(=O)O)C(=O)N[C@@H](C)C(=O)N[C@@H](CO)C(=O)N[C@@H](CC(=O)O)C(=O)N[C@@H](C)C(=O)N[C@@H](Cc1ccccc1)C(=O)N[C@H](C(=O)N[C@@H](CCCNC(=N)N)C(=O)N[C@@H](Cc1ccccc1)C(=O)N[C@@H](Cc1ccccc1)C(=O)N[C@@H](CCCNC(=N)N)C(=O)N[C@@H](CCC(N)=O)C(=O)N[C@@H](C)C(=O)N[C@@H](CCCNC(=N)N)C(=O)O)C(C)C [Peptide-4] (H-NIEL[dD]ASDAFVRFFRQAR-OH; N-terminus and C-terminus assumed)
Kd (SARS-CoV-2 RBD): 69 nM
IC50 at 4 h (hERG channel): > 50000 nM

CC[C@H](C)[C@H](NC(=O)[C@H](CCC(=O)O)NC(=O)[C@H](CS)NC(=O)[C@H](C)N)C(=O)N[C@H](CC(=O)O)C(=O)N[C@H](C(=O)N[C@@H](CO)C(=O)N[C@@H](CC(=O)O)C(=O)N[C@@H](C)C(=O)N[C@@H](Cc1ccccc1)C(=O)N[C@@H](CCCCN)C(=O)N[C@@H](CCCNC(=N)N)C(=O)N[C@@H](Cc1ccccc1)C(=O)N[C@@H](Cc1ccccc1)C(=O)N[C@@H](CCCNC(=N)N)C(=O)N[C@@H](C)C(=O)N[C@@H](C)C(=O)N[C@@H](CCCNC(=N)N)C(=O)O)C(C)C [Peptide-5] (H-ACEI[dD]VSDAFKRFFRAAR-OH; N-terminus and C-terminus assumed)
Kd (SARS-CoV-2 RBD): 43 nM
IC50 at 4 h (hERG channel): > 50000 nM

ELELVVSTAFYRFFRHAR [Peptide-3]
Kd (NRP1): 81 nM
IC50 (hERG channel): > 50000 nM
